From patent publication US20210369853A1, “TARGETED PROTEASE DEGRADATION PLATFORM” (EUBULUS BIOTHERAPEUTICS INC., priority 2018, published 2021)
Where two headings read alike, the source gives them in different places.

Tests used:
Format in all cases: cell-based
[1] = tested on: Human Acute Lymphoblastic Leukemia Cells MOLT-4; test: Cell proliferation experiment (Alarm blue, 72 h, EC50); conditions: MOL4-4 cells
In short: (§1)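 Single-cell suspensions from log-phase cultures are plated, compound in complete medium is added at 5-fold dilution steps (two replicates each), and cells grow for 72 h. Viability is then measured as Alamar blue fluorescence, giving EC50 by sigmoidal fitting.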

[2] = tested on: Human Acute Myelomonocytic Leukemia HL-60; test: as above; conditions: HL-60 cells
In short: as §1

[3] = tested on: Human Breast Cancer MDA-MB-231; test: as above; conditions: MDA-MB-231 cells
In short: as §1

[4] = tested on: Human Colon Cancer HCT-116; test: as above; conditions: HCT116 cells
In short: as §1

Human Colon Cancer HT-29 = test: as above; conditions: HT-29 cells
In short: as §1

[5] = tested on: Human Glioma Cells U-87 MG; test: as above; conditions: U-87MG cells
In short: as §1

[6] = tested on: Human Monocytic Leukemia MV4-11; test: as above; conditions: Homo sapiens
In short: as §1

[7] = tested on: Human Monocytic Leukemia THP-1; test: as above; conditions: THP-1 cells
In short: as §1

[8] = tested on: Human Ovarian Cancer SK-OV-3; test: as above; conditions: SKO3 cells
In short: as §1

[9] = tested on: Human Small Cell Lung Cancer NCI-H82; test: as above; conditions: Homo sapiens, NCI-H82; NCIH82 cells
In short: as §1

[10] = tested on: Human cervical adenocarcinoma cells Hela; test: as above
In short: as §1

BRD4 = biological target: T1, BRD4 (Homo sapiens, UniProt O60885); test: Western blot, protein degradation (DC50)
T1 construct: endogenous in cells
In short: (§2)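 Cells treated with compound, lysed in RIPA and resolved by SDS-PAGE (4%-12%); PVDF blots probed with primary antibody overnight at 4° C, then secondary antibody, and developed with ECL. Band intensities quantified by densitometry to give degradation.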

PLK1 = biological target: T2, PLK1 (Homo sapiens, UniProt P53350); test: Western blot, protein degradation (DC50)
T2 construct: endogenous in cells
In short: as §2

HUVEC [11] = test: Cell proliferation experiment (EC50), HUVEC; conditions: Homo sapiens
PBMC [12] = test: Cell proliferation experiment (EC50), PBMC
Daudi [13] = test: Cell proliferation experiment (EC50), Daudi; conditions: Homo sapiens; Daudi cells
U937 = test: Cell proliferation experiment (EC50), U937; conditions: Homo sapiens, U-937; U937 cells
A549 = test: Cell proliferation experiment (EC50), A549; conditions: Homo sapiens; A549 cells
HUVEC [14] = test: Cell proliferation experiment (EC50), HUVEC; conditions: Homo sapiens; remark: listed apart in the source
PBMC [15] = test: Cell proliferation experiment (EC50), PBMC; remark: listed apart in the source
HUVEC [16] = test: Cell proliferation experiment (EC50), HUVEC
PBMC [17] = test: Cell proliferation experiment (EC50), PBMC; remark: listed apart in the source
Daudi [18] = test: Cell proliferation experiment (EC50), Daudi; conditions: Homo sapiens; Daudi cells; remark: listed apart in the source
[19] = 6 h, western blot, read-out: BRD4 DC50 (6 h)
[20] = 24 h, western blot, read-out: BRD4 DC50 (24 h)
[21] = 6 h, western blot, read-out: PLK1 DC50 (6 h)
[22] = 24 h, western blot, read-out: PLK1 DC50 (24 h)

T2 sequence (P53350 whole entry): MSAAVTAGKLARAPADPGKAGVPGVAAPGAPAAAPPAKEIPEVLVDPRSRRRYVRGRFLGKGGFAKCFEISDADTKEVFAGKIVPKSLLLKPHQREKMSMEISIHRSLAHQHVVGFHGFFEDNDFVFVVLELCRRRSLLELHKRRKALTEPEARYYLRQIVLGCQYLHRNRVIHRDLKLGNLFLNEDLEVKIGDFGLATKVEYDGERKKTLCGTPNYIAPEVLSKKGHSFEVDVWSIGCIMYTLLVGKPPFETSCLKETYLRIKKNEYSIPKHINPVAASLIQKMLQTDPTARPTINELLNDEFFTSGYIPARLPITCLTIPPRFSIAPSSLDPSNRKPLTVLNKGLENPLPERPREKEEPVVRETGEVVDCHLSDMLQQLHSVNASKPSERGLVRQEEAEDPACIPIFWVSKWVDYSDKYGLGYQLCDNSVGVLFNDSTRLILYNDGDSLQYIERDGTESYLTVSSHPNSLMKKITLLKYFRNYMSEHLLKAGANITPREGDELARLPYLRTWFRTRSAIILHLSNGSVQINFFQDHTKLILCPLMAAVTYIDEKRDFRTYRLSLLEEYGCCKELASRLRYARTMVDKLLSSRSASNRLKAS

SMILES	EC50 [1]	EC50 [2]	EC50 ([3]; Homo sapiens)	EC50 ([4]; Homo sapiens, HCT-116)	EC50 (Human Colon Cancer HT-29; Homo sapiens)	EC50 ([5]; Homo sapiens)	EC50 ([6]; MV4;11 cells)	EC50 [7]	EC50 [9]	EC50 ([10]; Homo sapiens)	DC50 (BRD4; [19])	DC50 (PLK1; [21])	EC50 (HUVEC [11])	EC50 (PBMC [12])	EC50 ([6]; MV4-11, MV4;11 cells)	also measured
CC[C@@H]1C(=O)N(C)c2cnc(Nc3ccc(C(=O)NC4CCN(CCNCCOCC(=O)Nc5cccc6c5CN(C5CCC(=O)NC5=O)C6=O)CC4)cc3OC)nc2N1Cc1ccc(Cl)s1 (stereo partly shown) [UB-180711]	100 to 1000 nM	100 to 1000 nM	100 to 1000 nM	100 to 1000 nM	100 to 1000 nM	100 to 1000 nM	< 10 nM	100 to 1000 nM	100 to 1000 nM	100 to 1000 nM	< 10 nM	10 to 100 nM	100 to 1000 nM	100 to 1000 nM		EC50 ([8]; Homo sapiens, SK-OV-3): 100 to 1000 nM; DC50 (BRD4; [20]): < 10 nM; DC50 (PLK1; [22]): < 10 nM; EC50 (Daudi [13]): 100 to 1000 nM; EC50 (U937): 100 to 1000 nM; EC50 (A549): 100 to 1000 nM
CC[C@@H]1C(=O)N(C)c2cnc(Nc3ccc(C(=O)NCc4cn(CCNCCC(=O)Nc5cccc6c5CN(C5CCC(=O)NC5=O)C6=O)nn4)cc3OC)nc2N1C1CCCC1 (stereo partly shown) [UB-180680]	100 to 1000 nM	100 to 1000 nM	100 to 1000 nM		100 to 1000 nM	100 to 1000 nM	10 to 100 nM		100 to 1000 nM		< 10 nM	< 10 nM	> 1000 nM	> 1000 nM		DC50 (BRD4; [20]): < 10 nM; DC50 (PLK1; [22]): 10 to 100 nM; EC50 (Daudi [13]): 100 to 1000 nM
CC[C@@H]1C(=O)N(C)c2cnc(Nc3ccc(C(=O)NCCOCCNCCCCCCC(=O)Nc4cccc5c4CN(C4CCC(=O)NC4=O)C5=O)cc3OC)nc2N1Cc1ccc(Cl)s1 (stereo partly shown) [UB-180675]							10 to 100 nM				< 10 nM	< 10 nM	> 1000 nM	> 1000 nM		
CC[C@@H]1C(=O)N(C)C2CNC(Nc3ccc(C(=O)NCCCNCCCC(=O)Nc4cccc5c4CN(C4CCC(=O)NC4=O)C5=O)cc3OC)NC2N1Cc1ccc(Cl)s1 (stereo partly shown) [UB-180678]	100 to 1000 nM	100 to 1000 nM	100 to 1000 nM		100 to 1000 nM	100 to 1000 nM	10 to 100 nM		100 to 1000 nM		< 10 nM	100 to 1000 nM	100 to 1000 nM	100 to 1000 nM		
CC[C@@H]1C(=O)N(C)c2cnc(Nc3ccc(C(=O)NCCOCCOCCOCCNCCC(=O)Nc4cccc5c4CN(C4CCC(=O)NC4=O)C5=O)cc3OC)nc2N1C1CCCC1 (stereo partly shown) [UB-180633]		100 to 1000 nM	100 to 1000 nM	> 1000 nM	100 to 1000 nM	100 to 1000 nM	10 to 100 nM	100 to 1000 nM	> 1000 nM	100 to 1000 nM						DC50 (BRD4; 6 h, read-out: BRD4 DC50 (6 h)): < 10 nM; DC50 (BRD4; 24 h, read-out: BRD4 DC50 (24 h)): < 10 nM; DC50 (PLK1; 6 h, read-out: PLK1 DC50 (6 h)): 100 to 1000 nM; DC50 (PLK1; 24 h, read-out: PLK1 DC50 (24 h)): 10 to 100 nM; EC50 (HUVEC [14]): > 1000 nM; EC50 (PBMC [15]): > 1000 nM
CC[C@@H]1C(=O)N(C)c2cnc(Nc3ccc(C(=O)NC4CCN(CCOCCN(CC(=O)Nc5cccc6c5CN(C5CCC(=O)NC5=O)C6=O)C(=O)OC(C)C(C)SSC[C@@H](NC(=O)CCOCCOCCOCCOCCOCCOCCNC(=O)CC[C@H](NC(=O)c5ccc(NCc6cnc7nc(N)[nH]c(=O)c7n6)cc5)C(=O)O)C(=O)O)CC4)cc3OC)nc2N1C1CCCC1 (stereo partly shown) [UB-180829]																EC50 [3]: 100 to 1000 nM; EC50 [4]: 100 to 1000 nM; EC50 (Human Colon Cancer HT-29): 100 to 1000 nM; EC50 [5]: 100 to 1000 nM; EC50 [8]: 100 to 1000 nM; EC50 [10]: 100 to 1000 nM; EC50 (HUVEC [16]): > 1000 nM; EC50 (PBMC [17]): > 1000 nM
CC[C@@H]1C(=O)N(C)c2cnc(Nc3ccc(C(=O)NCCCNCCCCCC(=O)Nc4cccc5c4CN(C4CCC(=O)NC4=O)C5=O)cc3OC)nc2N1C1CCCC1 (stereo partly shown) [UB-180660]		100 to 1000 nM	100 to 1000 nM	100 to 1000 nM	100 to 1000 nM	100 to 1000 nM		100 to 1000 nM	> 1000 nM	100 to 1000 nM	10 to 100 nM	< 10 nM	> 1000 nM	> 1000 nM	10 to 100 nM	
CC[C@@H]1C(=O)N(C)c2cnc(Nc3ccc(C(=O)NCCOCCOCCOCCNCC#Cc4cccc5c4CN(C4CCC(=O)NC4=O)C5=O)cc3OC)nc2N1C1CCCC1 (stereo partly shown) [UB-180846]					100 to 1000 nM	100 to 1000 nM			100 to 1000 nM						< 10 nM	DC50 (BRD4; 6 h, read-out: BRD4 DC50 (6 h)): 10 to 100 nM; EC50 (Daudi [18]): 100 to 1000 nM
O=C1CCC(N2Cc3c(NC(=O)CNCCOCCN4CCN(CCNC(=O)[C@]5(Cc6cccc(Nc7nccs7)n6)CC[C@@H](Oc6cccc(Cl)c6F)CC5)CC4)cccc3C2=O)C(=O)N1 (stereo partly shown) [UB-180810]				100 to 1000 nM											100 to 1000 nM	DC50 (PLK1; 6 h, read-out: PLK1 DC50 (6 h)): < 10 nM; EC50 (HUVEC [16]; Homo sapiens): > 1000 nM; EC50 (PBMC [17]): > 1000 nM
